Reference: article PMC8374649, “IBI362 (LY3305677), a weekly-dose GLP-1 and glucagon receptor dual agonist, in Chinese adults with overweight or obesity: A randomised, placebo-controlled, multiple ascending dose phase 1b study” (EClinicalMedicine, 2021)

Test system: Chinese adults with overweight or obesity
Experiment: Efficacy and pharmacodynamic endpoints, change from baseline to week 12
Type: in vivo, human
Settings: for Body weight Percent CFB / BMI CFB / Body weight CFB / Diastolic blood pressure CFB / Fasting insulin CFB / Fasting plasma glucose CFB / LDL cholesterol CFB / Systolic blood pressure CFB / Total cholesterol CFB / Triglycerides CFB / Waist circumference CFB / Serum uric acid CFB: MMRM; for HbA1c CFB: ANCOVA, LOCF; for Serum uric acid CFB: post-hoc, baseline to week 12, LS mean (95% CI)
Description: The secondary pharmacodynamic endpoints included changes from baseline (pre-dose on day 0) to week 12 in fasting plasma glucose and fasting insulin levels. The secondary efficacy endpoints included changes from baseline to week 12 in body weight, waist circumference, waist-to-hip ratio, BMI, blood pressure, heart rate, lipids and HbA1c levels. Post-hoc comparison of changes from baseline to week 12 in serum uric acid levels was done between participants receiving IBI362 in each cohort and those receiving placebo. We used mixed effect model for repeated measures (MMRM) for post-baseline repeated measures to analyse continuous efficacy and pharmacodynamic endpoints. The MMRM included the corresponding baseline value, treatment, visit and treatment-by-visit as fixed effects and participant as a random effect. Mean change from baseline or mean percent change from baseline were analysed using a restricted maximum likelihood (REML)-based repeated measures approach in combination with the Newton Raphson Algorithm. The fix effect of visit was fitted as a repeated effect and an unstructured covariance matrix was used. In case of non-converge, matrix like Variance Components and Compound Symmetry will be tested in a subsequent order until model-convergence is achieved. The between-subject degree of freedom was used in estimating fixed effects. No missing data imputation was conducted. Least squares mean estimates of treatment effect at week 12 as well as treatment difference versus placebo alongside with two-sided 95% confidence intervals were provided for key efficacy and pharmacodynamic endpoints. Significance test for body weight was based on least squares means using a two-sided α of 0.05. HbA1c was measured only at baseline and week 12. Least squares mean estimates for HbA1c were computed from an Analysis of Covariance (ANCOVA) model with baseline HbA1c value and treatment as covariates. Last observation carried forward (LOCF) was used for imputing missing post-baseline measure. Least squares mean estimates of treatment effect at week 12 alongside with two-sided 95% confidence intervals were provided. Post-hoc analysis of serum uric acid was performed using MMRM model described above.

[1] = 1.0–2.0–3.0 mg sc once weekly, baseline to week 12, n = 8, LS mean (95% CI)
[2] = 1.5–3.0–4.5 mg sc once weekly, baseline to week 12, n = 8, LS mean (95% CI)
[3] = 2.0–4.0–6.0 mg sc once weekly, baseline to week 12, n = 7, LS mean (95% CI)

SMILES: CC(C)C[C@H](NC(=O)[C@H](CC(C)C)NC(=O)[C@H](Cc1c[nH]c2ccccc12)NC(=O)[C@H](CCC(=O)O)NC(=O)[C@@H](NC(=O)[C@H](Cc1ccccc1)NC(=O)[C@H](CCC(=O)O)NC(=O)[C@H](CCCCNC(=O)COCCOCCNC(=O)COCCOCCNC(=O)CC[C@H](NC(=O)CCCCCCCCCCCCCCCCCCC(=O)O)C(=O)O)NC(=O)[C@H](C)NC(=O)[C@H](CCCCN)NC(=O)[C@H](CCCCN)NC(=O)[C@H](CCC(=O)O)NC(=O)[C@H](CC(=O)O)NC(=O)[C@H](CC(C)C)NC(=O)[C@H](Cc1ccc(O)cc1)NC(=O)[C@H](CCCCN)NC(=O)[C@H](CO)NC(=O)[C@H](Cc1ccc(O)cc1)NC(=O)[C@H](CC(=O)O)NC(=O)[C@H](CO)NC(=O)[C@@H](NC(=O)[C@H](Cc1ccccc1)NC(=O)[C@@H](NC(=O)CNC(=O)[C@H](CCC(N)=O)NC(=O)C(C)(C)NC(=O)[C@@H](N)Cc1c[nH]cn1)[C@@H](C)O)[C@@H](C)O)C(C)C)C(=O)N[C@@H](CCC(=O)O)C(=O)NCC(=O)NCC(=O)N1CCC[C@H]1C(=O)N[C@@H](CO)C(=O)N[C@@H](CO)C(=O)NCC(N)=O [IBI362]
- Body weight Percent CFB (1.0–2.0–3.0 mg sc once weekly (3.0 mg cohort), baseline to week 12, n = 8, LS mean (95% CI)): −4.81%
- HbA1c CFB [1]: −0.38%
- BMI CFB [1]: −1.44 kg/m²
- Body weight CFB [1]: -3.80 kg
- Diastolic blood pressure CFB [1]: −8.48 mm Hg
- Fasting insulin CFB [1]: −3.58 µU/mL
- Fasting plasma glucose CFB [1]: -0.30 mmol/L
- LDL cholesterol CFB [1]: -0.11 mmol/L
- Systolic blood pressure CFB [1]: −8.26 mm Hg
- Total cholesterol CFB [1]: -0.74 mmol/L
- Triglycerides CFB [1]: -0.44 mmol/L
- Waist circumference CFB [1]: −3.25 cm
- Body weight Percent CFB (1.5–3.0–4.5 mg sc once weekly (4.5 mg cohort), baseline to week 12, n = 8, LS mean (95% CI)): −6.40%
- HbA1c CFB [2]: −0.24%
- BMI CFB [2]: −2.00 kg/m²
- Body weight CFB [2]: -5.77 kg
- Diastolic blood pressure CFB [2]: −5.76 mm Hg
- Fasting insulin CFB [2]: −6.14 µU/mL
- Fasting plasma glucose CFB [2]: -0.11 mmol/L
- LDL cholesterol CFB [2]: -0.25 mmol/L
- Systolic blood pressure CFB [2]: −5.80 mm Hg
- Total cholesterol CFB [2]: -0.68 mmol/L
- Triglycerides CFB [2]: -0.55 mmol/L
- Waist circumference CFB [2]: −4.57 cm
- Body weight Percent CFB (2.0–4.0–6.0 mg sc once weekly (6.0 mg cohort), baseline to week 12, n = 7, LS mean (95% CI)): −6.05%
- HbA1c CFB [3]: −0.23%
- BMI CFB [3]: −1.88 kg/m²
- Body weight CFB [3]: -5.12 kg
- Diastolic blood pressure CFB [3]: −2.73 mm Hg
- Fasting insulin CFB [3]: −0.42 µU/mL
- Fasting plasma glucose CFB [3]: -0.13 mmol/L
- LDL cholesterol CFB [3]: -0.34 mmol/L
- Systolic blood pressure CFB [3]: −5.59 mm Hg
- Total cholesterol CFB [3]: -0.81 mmol/L
- Triglycerides CFB [3]: -0.74 mmol/L
- Waist circumference CFB [3]: −5.00 cm
- Serum ALT and AST levels (all three dose cohorts (Fig. S6)): decreased from baseline
- Serum uric acid CFB (3.0 mg cohort (1.0-2.0-3.0 mg)): -43.67 µmol/L
- Serum uric acid CFB (4.5 mg cohort (1.5-3.0-4.5 mg)): -83.47 µmol/L
- Serum uric acid CFB (6.0 mg cohort (2.0-4.0-6.0 mg)): -87.48 µmol/L
- Participants with coincident decrease in body weight, LDL cholesterol, triglycerides, blood pressure and serum uric acid (week 12, all IBI362 cohorts, 10 participants, data not shown): 41.7%
- Participants achieving ≥5% weight loss from baseline (week 12, all IBI362 cohorts, thirteen participants): 54.2%
